PubChem BioAssay AID1963983 (Molecular Pharmacology Branch, DTP, NCI, 2024)

Test system: 186277-243-T-J2-PDC multi-cell spheroid viability
Test: Anticancer human tumor 186277-243-T-J2-PDC patient-derived colon adenocarcinoma cell line growth inhibition [PI3K]
Details: for IC50: curve of first compound; for viability, T/C: stronger effect = lower value
Source text: Combinatorial screen of targeted agents with the PI3K inhibitors inavolisib, alpelisib, duvelisib, and copanlisib in multi-cell type tumor spheroids
A high-throughput screen of multi-cell type tumor spheroids was designed to identify active combinations of targeted small molecules and PI3K pathway inhibitors. Complex spheroids include a stromal component modeled by human endothelial cells (HUVEC) and fibroblasts modeled by human mesenchymal stem cells (MSCs). The concentration ranges selected for each drug and investigational agent were based upon clinically achievable concentrations if the clinical Cmax of the agent was known.
Compounds. The drugs and investigational agents: inavolisib (NSC800729), alpelisib (NSC765974), duvelisib (NSC772469), copanlisib (NSC816437), ipatasertib (NSC767898), afuresertib (NSC778305), talazoparib (NSC767125), sapanisertib (NSC764658), selumetinib (NSC741078), tovorafenib (DAY101, NSC766906), vemurafenib (NSC761431), ravoxertinib (NSC781343), sotorasib (NSC818433), MRTX1133 (NSC 836407), abemaciclib (NSC 768073), palbociclib (NSC758247), venetoclax (NSC 766270), SY5609 (NSC837396), enzalutamide (NSC755605), and darolutamide (NSC825331), were obtained from the National Cancer Institute (NCI) Developmental Therapeutics Program Chemical Repository. The FDA-approved anticancer drug set is available from the NCI Developmental Therapeutics Program. […] The stock solutions were prepared in dimethyl sulfoxide (DMSO, Sigma-Aldrich, St. Louis, MO, cat. D2650) at 800-fold the tested concentration and stored at -70 degrees C prior to their use. All drugs and investigational agents were tested over a range starting from a high concentration at or near the clinical Cmax and decreasing in half-log increments. If the clinical Cmax for an agent had not been determined, the highest concentration tested was 10 microM.
Cell Culture. All cells were maintained in an incubator at 37 degrees C and 5% CO2 with 95% humidity. The PDC lines were cultured according to standard operating procedures established by the NCI PDMR (https://pdmr.cancer.gov/sops/default.htm). All PDCs were thawed and cultured in Matrigel-coated flasks prepared with a working solution of 1X Ham's F-12 nutrient mix, without supplementation (Invitrogen, Waltham, MA, cat. 11765054), 100 U/mL penicillin-streptomycin (Invitrogen, cat. 15140122), and 2.5% Matrigel (Corning Inc., Corning, NY, cat. 354248) for the first three passages. The 354836-022-R-J1-PDC, 475296-252-R-J1-PDC, and 997726-040-R-J2-PDC lines were cultured in 6A media, which includes advanced DMEM/F-12 (Thermo Fisher Scientific, cat. 12634028), 10 mM HEPES (Thermo Fisher Scientific, cat. 15630080), 1X GlutaMAX supplement (Thermo Fisher Scientific, cat. 35050061), 0.1 mg/mL primocin (InvivoGen, San Diego, CA, cat. ant-pm-2), 10% defined fetal bovine serum, heat inactivated (HyClone Laboratories Inc., Logan, UT, cat. SH30070.03HI), 50% L-WRN conditioned media (ATCC, cat. CRL-3276), 1.25 mM N-Acetyl-L-cysteine (Sigma-Aldrich, cat. A9165), 10 mM nicotinamide (Sigma-Aldrich, cat. N0636), 1X B-27 supplement (Thermo Fisher Scientific, cat. 17504044), 1X N-2 supplement (Thermo Fisher Scientific, cat. 17502048), and 10 microM Y-27632 dihydrochloride (Tocris Bioscience, Bristol, United Kingdom, cat. 1254). The 624824-186-R-J2-PDC line was cultured in 6C/Colon 1B media, which includes all 6A media components plus 50 ng/mL human EGF recombinant protein (Thermo Fisher Scientific, cat. PHG0311). […]

[1] = second compound 0.00316 µM, first compound 0.0316 µM
[2] = second compound 0.00316 µM, first compound 0.1 µM
[3] = second compound 0.00316 µM, first compound 0.316 µM
[4] = second compound 0.00316 µM, first compound 1 µM
[5] = second compound 0.00316 µM, first compound 3.16 µM
[6] = second compound 0.00316 µM, first compound 10 µM
[7] = second compound 0.01 µM, first compound 0.0316 µM
[8] = second compound 0.01 µM, first compound 0.1 µM
[9] = second compound 0.01 µM, first compound 0.316 µM
[10] = second compound 0.01 µM, first compound 1 µM
[11] = second compound 0.01 µM, first compound 3.16 µM
[12] = second compound 0.01 µM, first compound 10 µM
[13] = second compound 0.0316 µM, first compound 0.0316 µM
[14] = second compound 0.0316 µM, first compound 0.1 µM
[15] = second compound 0.0316 µM, first compound 0.316 µM
[16] = second compound 0.0316 µM, first compound 1 µM
[17] = second compound 0.0316 µM, first compound 3.16 µM
[18] = second compound 0.0316 µM, first compound 10 µM
[19] = second compound 0.1 µM, first compound 0.0316 µM
[20] = second compound 0.1 µM, first compound 0.1 µM
[21] = second compound 0.1 µM, first compound 0.316 µM
[22] = second compound 0.1 µM, first compound 1 µM
[23] = second compound 0.1 µM, first compound 3.16 µM
[24] = second compound 0.1 µM, first compound 10 µM
[25] = second compound 0.316 µM, first compound 0.0316 µM
[26] = second compound 0.316 µM, first compound 0.1 µM
[27] = second compound 0.316 µM, first compound 0.316 µM
[28] = second compound 0.316 µM, first compound 1 µM
[29] = second compound 0.316 µM, first compound 3.16 µM
[30] = second compound 0.316 µM, first compound 10 µM
[31] = second compound 1 µM, first compound 0.0316 µM
[32] = second compound 1 µM, first compound 0.1 µM
[33] = second compound 1 µM, first compound 0.316 µM
[34] = second compound 1 µM, first compound 1 µM
[35] = second compound 1 µM, first compound 3.16 µM
[36] = second compound 1 µM, first compound 10 µM
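Note: spheroids exposed to compounds for seven days before viability reading.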
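Throughout, for viability, T/C: 100% = DMSO vehicle control viability.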

`CCCS(=O)(=O)Nc1ccc(F)c(C(=O)c2c[nH]c3ncc(-c4ccc(Cl)cc4)cc23)c1F` + COc1c(OCCCN2CCOCC2)ccc2c3n(c(=NC(=O)c4cnc(N)nc4)nc12)CCN3 gave an IC50 (second compound 0.00316 µM) of 4900 nM, an IC50 (second compound 0.01 µM) of 5600 nM and an IC50 (second compound 0.0316 µM) of 5160 nM. It also gave an IC50 (second compound 0.1 µM) of less than 31.6 nM, an IC50 (second compound 0.316 µM) of less than 31.6 nM and an IC50 (second compound 1 µM) of less than 31.6 nM. For the same molecule, the viability, T/C [1] was 114%, the viability, T/C [2] was 99.1% and the viability, T/C [3] was 84.9%. It also gave a viability, T/C [4] of 83.5%, a viability, T/C [5] of 79.4% and a viability, T/C [6] of 14.2%. It also gave a viability, T/C [7] of 105%, a viability, T/C [8] of 90.1% and a viability, T/C [9] of 110%. The viability, T/C [10] was 90.3%, the viability, T/C [11] was 87% and the viability, T/C [12] was 13.8%. The viability, T/C [13] was 81.1%, the viability, T/C [14] was 68.5% and the viability, T/C [15] was 96.3%. The viability, T/C [16] was 88.2%, the viability, T/C [17] was 77.9% and the viability, T/C [18] was 12.2%. For the same molecule, the viability, T/C [19] was 23.1%, the viability, T/C [20] was 27.3% and the viability, T/C [21] was 29.4%. For the same molecule, the viability, T/C [22] was 46.7%, the viability, T/C [23] was 46% and the viability, T/C [24] was 7.08%. The viability, T/C [25] was 7.65%, the viability, T/C [26] was 8.23% and the viability, T/C [27] was 7.39%. For the same molecule, the viability, T/C [28] was 8.35%, the viability, T/C [29] was 12.3% and the viability, T/C [30] was 2.99%. For the same molecule, the viability, T/C [31] was 3.27%, the viability, T/C [32] was 3.82% and the viability, T/C [33] was 3.96%. The viability, T/C [34] was 4.58%, the viability, T/C [35] was 7.64% and the viability, T/C [36] was 2.38%.
Work on `CC(Cn1ccc(-c2ccc(C#N)c(Cl)c2)n1)NC(=O)c1cc(C(C)O)[nH]n1` (stereo unspecified) + CC(Nc1ncnc2nc[nH]c12)c1cc2cccc(Cl)c2c(=O)n1-c1ccccc1 yielded an IC50 (second compound 0.0316 µM) greater than 10000 nM, an IC50 (second compound 0.1 µM) greater than 10000 nM and an IC50 (second compound 0.316 µM) greater than 10000 nM. It also gave an IC50 (second compound 1 µM) greater than 10000 nM, an IC50 (second compound 3.16 µM) greater than 10000 nM and an IC50 (second compound 10 µM) greater than 10000 nM. For the same molecule, the viability, T/C [13] was 91%, the viability, T/C [14] was 109% and the viability, T/C [15] was 101%. The viability, T/C [16] was 90.2%, the viability, T/C [17] was 93.7% and the viability, T/C [18] was 97.9%. For the same molecule, the viability, T/C [19] was 98.2%, the viability, T/C [20] was 94.8% and the viability, T/C [21] was 94.9%. For the same molecule, the viability, T/C [22] was 103%, the viability, T/C [23] was 101% and the viability, T/C [24] was 88.3%. It also gave a viability, T/C [25] of 92.3%, a viability, T/C [26] of 104% and a viability, T/C [27] of 95.7%. It also gave a viability, T/C [28] of 93.1%, a viability, T/C [29] of 98.5% and a viability, T/C [30] of 102%. The viability, T/C [31] was 92.7%, the viability, T/C [32] was 108% and the viability, T/C [33] was 114%. The viability, T/C [34] was 92.1%, the viability, T/C [35] was 94.4% and the viability, T/C [36] was 84.1%. The viability, T/C (second compound 3.16 µM, first compound 0.0316 µM) was 89.6%, the viability, T/C (second compound 3.16 µM, first compound 0.1 µM) was 102% and the viability, T/C (second compound 3.16 µM, first compound 0.316 µM) was 116%. For the same molecule, the viability, T/C (second compound 3.16 µM, first compound 1 µM) was 97.3%, the viability, T/C (second compound 3.16 µM, first compound 3.16 µM) was 106% and the viability, T/C (second compound 3.16 µM, first compound 10 µM) was 94.5%. It also gave a viability, T/C (second compound 10 µM, first compound 0.0316 µM) of 98%, a viability, T/C (second compound 10 µM, first compound 0.1 µM) of 83.4% and a viability, T/C (second compound 10 µM, first compound 0.316 µM) of 84.3%. It also gave a viability, T/C (second compound 10 µM, first compound 1 µM) of 98.9%, a viability, T/C (second compound 10 µM, first compound 3.16 µM) of 90.1% and a viability, T/C (second compound 10 µM, first compound 10 µM) of 78.8%.
`Cn1ncc(Cl)c1-c1cc(C(=O)NC(CN)Cc2cccc(F)c2)sc1Cl` (stereo unspecified) + CC(Nc1ccc2c(c1)OCCn1cc(N3C(=O)OCC3C(F)F)nc1-2)C(N)=O was tested, and the IC50 (second compound 0.00316 µM) was 608 nM, the IC50 (second compound 0.01 µM) was 422 nM and the IC50 (second compound 0.0316 µM) was 339 nM. The IC50 (second compound 0.1 µM) was 226 nM, the IC50 (second compound 0.316 µM) was 64.6 nM and the IC50 (second compound 1 µM) was less than 31.6 nM. It also gave a viability, T/C [1] of 82.7%, a viability, T/C [2] of 73.8% and a viability, T/C [3] of 48.5%. For the same molecule, the viability, T/C [4] was 45.4%, the viability, T/C [5] was 39.2% and the viability, T/C [6] was 10.5%. For the same molecule, the viability, T/C [7] was 106%, the viability, T/C [8] was 76.3% and the viability, T/C [9] was 44.6%. It also gave a viability, T/C [10] of 44.1%, a viability, T/C [11] of 34.3% and a viability, T/C [12] of 8.87%. The viability, T/C [13] was 103%, the viability, T/C [14] was 88% and the viability, T/C [15] was 45.6%. The viability, T/C [16] was 29%, the viability, T/C [17] was 23% and the viability, T/C [18] was 5.6%. For the same molecule, the viability, T/C [19] was 88.5%, the viability, T/C [20] was 77.6% and the viability, T/C [21] was 36.3%. The viability, T/C [22] was 21.9%, the viability, T/C [23] was 16.6% and the viability, T/C [24] was 4.47%. The viability, T/C [25] was 64.6%, the viability, T/C [26] was 39.7% and the viability, T/C [27] was 27.7%. For the same molecule, the viability, T/C [28] was 14.7%, the viability, T/C [29] was 13.5% and the viability, T/C [30] was 3.25%. The viability, T/C [31] was 45.1%, the viability, T/C [32] was 25.5% and the viability, T/C [33] was 12.5%. For the same molecule, the viability, T/C [34] was 11%, the viability, T/C [35] was 10.1% and the viability, T/C [36] was 1.75%.
